Data on 30 compounds can be found in US10730866B2, “Indole derivatives and use thereof” (Purdue Pharma L.P., priority 2014, dated 2020).

In the test the target is human Nav1.7 (Homo sapiens (Human), UniProt Q15858). As to the kind of experiment: FLIPR or FLIPR TETRA sodium dye assay for sodium channel blocking activity. It counts as cell-based. The conditions noted are these: recombinant HEK293 cells expressing human Nav1.7. The procedure: In vitro assays were performed in a recombinant cell line expressing cDNA encoding the alpha subunit (Nav1.7, SCN9a, PN1, NE) of human Nav1.7 (Accession No. NM_002977). The cell line was provided by investigators at Yale University (Cummins et al, J. Neurosci. 18(23): 9607-9619 (1998)). For dominant selection of the Nav1.7-expressing clones, the expression plasmid co-expressed the neomycin resistance gene. The cell line was constructed in the human embryonic kidney cell line, HEK293, under the influence of the CMV […] promoter, and stable clones were selected using limiting dilution cloning and antibiotic selection using the neomycin analogue, G418. Recombinant beta and gamma subunits were not introduced into this cell line. Additional cell lines expressing recombinant Nav1.7 cloned from other species can also be used, alone or in combination with various beta subunits, gamma subunits or chaperones.
Sequence of human Nav1.7 (Q15858 other isoform, or with tags, fused parts or gaps): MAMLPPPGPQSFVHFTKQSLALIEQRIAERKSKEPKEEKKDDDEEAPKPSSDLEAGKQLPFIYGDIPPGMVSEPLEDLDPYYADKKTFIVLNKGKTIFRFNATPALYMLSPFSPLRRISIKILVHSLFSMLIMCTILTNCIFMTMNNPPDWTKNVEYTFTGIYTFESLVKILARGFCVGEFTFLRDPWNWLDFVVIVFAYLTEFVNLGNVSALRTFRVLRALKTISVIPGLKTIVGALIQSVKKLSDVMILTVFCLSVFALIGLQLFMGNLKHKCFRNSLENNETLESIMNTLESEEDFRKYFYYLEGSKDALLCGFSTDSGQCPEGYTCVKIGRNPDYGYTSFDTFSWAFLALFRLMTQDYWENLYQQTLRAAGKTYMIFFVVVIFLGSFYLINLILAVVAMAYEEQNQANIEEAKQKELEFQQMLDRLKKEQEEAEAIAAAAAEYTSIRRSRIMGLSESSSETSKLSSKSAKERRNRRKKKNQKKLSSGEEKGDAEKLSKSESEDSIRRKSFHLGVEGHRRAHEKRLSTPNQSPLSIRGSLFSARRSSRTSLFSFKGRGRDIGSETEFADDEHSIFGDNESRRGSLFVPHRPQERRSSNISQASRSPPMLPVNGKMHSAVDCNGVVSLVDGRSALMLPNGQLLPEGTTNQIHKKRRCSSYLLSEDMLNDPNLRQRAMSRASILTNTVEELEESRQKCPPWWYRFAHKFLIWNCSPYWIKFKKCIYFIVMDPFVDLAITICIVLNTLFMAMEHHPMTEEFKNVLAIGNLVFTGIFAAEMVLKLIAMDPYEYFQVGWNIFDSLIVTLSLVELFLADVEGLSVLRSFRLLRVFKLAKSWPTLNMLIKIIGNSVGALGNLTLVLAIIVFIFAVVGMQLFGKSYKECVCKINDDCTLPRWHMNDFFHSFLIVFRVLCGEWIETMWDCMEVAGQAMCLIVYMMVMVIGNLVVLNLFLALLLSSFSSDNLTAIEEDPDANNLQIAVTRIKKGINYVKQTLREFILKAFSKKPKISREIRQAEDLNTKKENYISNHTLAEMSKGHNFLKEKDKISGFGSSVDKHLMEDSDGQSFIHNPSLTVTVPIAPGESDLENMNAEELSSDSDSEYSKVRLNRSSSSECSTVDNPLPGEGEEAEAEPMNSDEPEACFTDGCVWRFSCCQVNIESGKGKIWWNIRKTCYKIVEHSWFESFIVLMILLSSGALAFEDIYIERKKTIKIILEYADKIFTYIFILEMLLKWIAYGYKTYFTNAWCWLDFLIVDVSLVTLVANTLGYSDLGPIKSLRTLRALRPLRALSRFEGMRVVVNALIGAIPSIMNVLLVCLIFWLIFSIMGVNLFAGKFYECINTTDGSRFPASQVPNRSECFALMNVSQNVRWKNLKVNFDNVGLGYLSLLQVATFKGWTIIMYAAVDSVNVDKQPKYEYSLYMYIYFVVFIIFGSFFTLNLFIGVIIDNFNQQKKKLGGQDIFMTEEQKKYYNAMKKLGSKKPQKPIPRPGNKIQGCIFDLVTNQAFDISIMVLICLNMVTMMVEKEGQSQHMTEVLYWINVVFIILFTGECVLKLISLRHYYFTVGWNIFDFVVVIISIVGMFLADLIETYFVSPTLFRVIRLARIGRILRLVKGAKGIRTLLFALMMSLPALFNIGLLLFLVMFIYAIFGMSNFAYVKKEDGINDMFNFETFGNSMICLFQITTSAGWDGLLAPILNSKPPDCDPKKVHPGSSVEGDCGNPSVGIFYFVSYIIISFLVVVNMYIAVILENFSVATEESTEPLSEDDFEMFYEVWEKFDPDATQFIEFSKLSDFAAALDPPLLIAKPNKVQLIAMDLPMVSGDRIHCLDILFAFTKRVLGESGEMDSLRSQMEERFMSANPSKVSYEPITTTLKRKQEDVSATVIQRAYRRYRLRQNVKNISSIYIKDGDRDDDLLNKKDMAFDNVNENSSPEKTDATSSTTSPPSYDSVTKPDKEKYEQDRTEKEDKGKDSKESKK
Unless otherwise noted, cell culture reagents were purchased from Mediatech of Herndon, Va. The recombinant Nav1.7/HEK293 cells were routinely cultured in growth medium consisting of Dulbecco's […] essential medium containing 10% fetal bovine serum (FBS, Hyclone, Thermo Fisher Scientific, Logan, Utah), 100 U/mL penicillin, 100 μg/mL streptomycin, 2-4 mM L-glutamine, and […] G418. For natural, non-recombinant cell lines, the selective antibiotic was omitted, and additional media formulations can be applied as needed.
The final buffer consisted of 20 mM Hepes, pH 7.3, 1.261 mM CaCl2, 0.493 mM MgCl2, 0.407 mM Mg(SO)4, 5.33 mM KCl, 0.441 mM KH2PO4, 137 mM NaCl, 0.336 mM Na2HPO4 and […] D-glucose (Hanks et al., Proc. Soc. Exp. Biol. Med. 71:196 (1949)), and the simple formulation was typically the basic buffer throughout the assay (i.e., all wash and addition steps).
The fluorescence indicator used in the primary fluorescence assay was the cell permeant version of CoroNa™ Green (Invitrogen, Molecular Probes, Eugene, Oreg.), a dye that emits light in the fluorescence range (Harootunian et al., J. Biol. Chem. 264(32):19458-19467 (1989)). The intensity of this emission, but not the wavelength range, is increased when the dye is exposed to Na^+ ions, which it can bind with partial selectivity. Cells expressing Nav1.7 or other sodium channels were loaded with the CoroNa™ Green dye immediately in advance of the fluorescence assay, and then, after agonist stimulation, the mobilization of Na^+ ions was detected as the Na^+ ions flowed from the extracellular fluid into the cytoplasm through the activated sodium channel pores. The dye was stored in the dark as a lyophilized powder, and then an aliquot was dissolved immediately before the cell loading procedure, according to the instructions of the manufacturer, to a stock concentration of 10 mM in DMSO. It was then diluted in the assay buffer to a 4× concentrated working solution, so that the final concentration of dye in the cell loading buffer was 5 μM.
In the fluorescence assays, two agonists were used in combination, namely 1) veratridine; and 2) the venom from the yellow scorpion, Leiurus quinquestriatus hebraeus. Veratridine is an alkaloid small molecule that facilitates the capture of channel openings by inhibiting inactivation, and the scorpion venom is a natural preparation that includes peptide toxins selective for different subsets of voltage-gated sodium channels. These scorpion toxins inhibit the fast inactivation of their cognate target channels. Stock solutions of the agonists were prepared to 40 mM in DMSO (veratridine) and 1 mg/mL in dH2O (scorpion venom), and then diluted to make a 4× or 2× stock (depending on the particular assay) in assay buffer, the final concentration being 100 μM (veratridine) and 10 μg/mL (scorpion venom). Both of the agonists were purchased from Sigma Aldrich, St. Louis, Mo.
Test compounds were dissolved in DMSO to yield 10 mM stock solutions. […]

For the compound `NC(=O)[C@H](O)[C@@H](O)c1cccc(-c2ccc3c(ccn3CC3CCCCC3)c2)n1` [Compound 152, (2R,3S)-3-(6-(1-(cyclohexylmethyl)-1H-indol-5-yl)pyridin-2-yl)-2,3-dihydroxypropanamide], the IC50 came out at 0.402 ± 0.032 µM.
In the case of `NC(=O)c1cccc(-c2ccc3c(ccn3CC3CCCCC3)c2)n1` [Compound 58, 6-(1-(cyclohexylmethyl)-1H-indol-5-yl)picolinamide], the IC50 came out at 0.237 ± 0.062 µM.
For the compound `NC(=O)c1cc(O[C@H]2CCNC2=O)nc(-c2ccc3[nH]ccc3c2)n1` [Compound 37, (S)-2-(1H-indol-5-yl)-6-((2-oxopyrrolidin-3-yl)oxy)pyrimidine-4-carboxamide], the concentration for half-maximal inhibition (IC50) is above 20 µM.
The figure for `CC(C)Cn1ccc2cc(-c3cccc(C(N)=O)n3)ccc21` [Compound 67, 6-(1-isobutyl-1H-indol-5-yl)picolinamide] is 0.308 ± 0.078 µM; for `C[C@H](Nc1cc(C(N)=O)nc(-c2ccc3c(ccn3CC3CCCCC3)c2)n1)C(N)=O` [Compound 113, (S)-6-((1-amino-1-oxopropan-2-yl)amino)-2-(1-(cyclohexylmethyl)-1H-indol-5-yl)pyrimidine-4-carboxamide] it is 4.43 ± 0.541 µM.
The figure for `NC(=O)c1cccc(-c2ccc3c(ccn3Cc3ccc(F)cc3)c2)n1` [Compound 61, 6-(1-(4-fluorobenzyl)-1H-indol-5-yl)picolinamide] is 0.801 ± 0.052 µM.
Under `Cc1noc(C)c1Cn1ccc2cc(-c3cccc(C(N)=O)n3)ccc21` [Compound 66, 6-(1-((3,5-dimethylisoxazol-4-yl)methyl)-1H-indol-5-yl)picolinamide] stands 5.55 ± 0.376 µM; under `NC(=O)[C@H](O)[C@@H](O)c1cccc(-c2ccc3c(ccn3Cc3ccc(C(F)(F)F)cc3)c2)n1` [Compound 151, (2R,3S)-2,3-dihydroxy-3-(6-(1-(4-(trifluoromethyl)benzyl)-1H-indol-5-yl)pyridin-2-yl)propanamide], 0.773 ± 0.09 µM.
As for `NC(=O)c1cccc(-c2ccc3c(ccn3CCC3CCCCC3)c2)n1` [Compound 63, 6-(1-(2-cyclohexylethyl)-1H-indol-5-yl)picolinamide], the half-maximal inhibitory concentration (IC50) stood at 1.12 ± 0.182 µM.
The figure for `OC[C@@H](O)c1ccnc(-c2ccc3ncn(-c4ccc(C(F)(F)F)cc4)c3c2)n1` [Compound 51, (S)-1-(2-(1-(4-(trifluoromethyl)phenyl)-1H-benzo[d]imidazol-6-yl)pyrimidin-4-yl)ethane-1,2-diol] is 3.51 ± 0.733 µM; for `Cn1cc(-c2ccc(C(F)(F)F)cc2)c2cc(-c3cccc(C(N)=O)n3)ccc21` [Compound 130, 6-(1-methyl-3-(4-(trifluoromethyl)phenyl)-1H-indol-5-yl)picolinamide] it is above 20 µM; for `CC1CN(C(=O)c2cccc(-c3ccc4[nH]ccc4c3)n2)CC(C)O1` (stereo not drawn) [Compound 86, (6-(1H-indol-5-yl)pyridin-2-yl)(2,6-dimethylmorpholino)methanone] it is above 20 µM.
The figure for `COc1ccc(-c2nc3cc(-c4nc(N[C@H]5CCNC5=O)cc(C(N)=O)n4)ccc3n2-c2ccc(F)cc2)c(OC)c1` [Compound 42, (S)-2-(2-(2,4-dimethoxyphenyl)-1-(4-fluorophenyl)-1H-benzo[d]imidazol-5-yl)-6-((2-oxopyrrolidin-3-yl)amino)pyrimidine-4-carboxamide] is 2.02 ± 0.146 µM.
The figure for `NC(=O)c1cccc(-c2ccc3c(c2)c(C(N)=O)cn3Cc2ccc(C(F)(F)F)cc2)n1` [Compound 142, 5-(6-carbamoylpyridin-2-yl)-1-(4-(trifluoromethyl)benzyl)-1H-indole-3-carboxamide] is above 20 µM; for `O=C(Nc1ccc(C(F)(F)F)cc1)c1cccc(-c2ccc3[nH]ncc3c2)n1` [Compound 77, 6-(1H-indazol-5-yl)-N-(4-(trifluoromethyl)phenyl)picolinamide] it is 2.7 ± 0.524 µM; for `NC(=O)c1cccc(-c2ccc3c(ccn3Cc3ccc(C(F)(F)F)cc3)c2)n1` [Compound 56, 6-(1-(4-(trifluoromethyl)benzyl)-1H-indol-5-yl)picolinamide] it is 0.23 ± 0.026 µM.
As for `O=C(Nc1ccc(C(F)(F)F)cc1)c1cc(N[C@H]2CCNC2=O)cc(-c2ccc3[nH]ccc3c2)n1` [Compound 88, (S)-6-(1H-indol-5-yl)-4-((2-oxopyrrolidin-3-yl)amino)-N-(4-(trifluoromethyl)phenyl)picolinamide], the IC50 is 4.89 ± 0.388 µM.
Under `O=C(c1cccc(-c2ccc3[nH]ccc3c2)n1)N(c1ccc(C(F)(F)F)cc1)c1ccc(C(F)(F)F)cc1` [Compound 33, 6-(1H-indol-5-yl)-N,N-bis(4-(trifluoromethyl)phenyl)picolinamide] stands above 20 µM.
The figure for `N#Cc1cc([C@@H](O)CO)cc(-c2ccc3c(ccn3Cc3ccc(C(F)(F)F)cc3)c2)n1` [Compound 119, (R)-4-(1,2-dihydroxyethyl)-6-(1-(4-(trifluoromethyl)benzyl)-1H-indol-5-yl)picolinonitrile] is 5.09 ± 0.356 µM.
Regarding `NC(=O)c1cccc(-c2ccc3c(ccn3S(=O)(=O)C3CCCCC3)c2)n1` [Compound 59, 6-(1-(cyclohexylsulfonyl)-1H-indol-5-yl)picolinamide], the IC50 amounted to 0.927 ± 0.05 µM.
The figure for `NC(=O)c1cccc(-c2ccc3c(c2)c(CN[C@H]2CCNC2=O)cn3CC2CCCCC2)n1` [Compound 145, (S)-6-(1-(cyclohexylmethyl)-3-(((2-oxopyrrolidin-3-yl)amino)methyl)-1H-indol-5-yl)picolinamide] is 10 to 20 µM; for `OC[C@@H](O)c1cccc(-c2ccc3c(ccn3Cc3ccc(C(F)(F)F)cc3)c2)n1` [Compound 109, (S)-1-(6-(1-(4-(trifluoromethyl)benzyl)-1H-indol-5-yl)pyridin-2-yl)ethane-1,2-diol] it is 0.177 ± 0.005 µM; for `C[C@H](NC(=O)c1cn(Cc2ccc(C(F)(F)F)cc2)c2ccc(-c3cccc(C(N)=O)n3)cc12)C(N)=O` [Compound 143, (S)-N-(1-amino-1-oxopropan-2-yl)-5-(6-carbamoylpyridin-2-yl)-1-(4-(trifluoromethyl)benzyl)-1H-indole-3-carboxamide] it is above 20 µM.
Under `NC(=O)c1cc(N[C@H]2CCNC2=O)nc(-c2ccc3c(c2)ncn3-c2ccc(C(F)(F)F)cc2)n1` [Compound 45, (S)-6-((2-oxopyrrolidin-3-yl)amino)-2-(1-(4-(trifluoromethyl)phenyl)-1H-benzo[d]imidazol-5-yl)pyrimidine-4-carboxamide] stands 7.21 ± 0.562 µM; under `O=S(=O)(N1CCCCC1)n1ccc2cc(-c3cccc([C@H](O)CO)n3)ccc21` [Compound 111, (S)-1-(6-(1-(piperidin-1-ylsulfonyl)-1H-indol-5-yl)pyridin-2-yl)ethane-1,2-diol], 0.716 ± 0.073 µM; under `NC(=O)c1csc(-c2ccc3c(ccn3Cc3ccc(C(F)(F)F)cc3)c2)n1` [Compound 156, 2-(1-(4-(trifluoromethyl)benzyl)-1H-indol-5-yl)thiazole-4-carboxamide], 0.173 ± 0.018 µM.
`O=C(NC1CCCC1)c1cccc(-c2ccc3[nH]ccc3c2)n1` [Compound 85, N-cyclopentyl-6-(1H-indol-5-yl)picolinamide]: the concentration for half-maximal inhibition (IC50) amounted to 1.21 ± 0.242 µM.
Regarding `NC(=O)c1cc(N[C@H]2CCNC2=O)nc(-c2ccc3[nH]ccc3c2)n1` [Compound 36, (S)-2-(1H-indol-5-yl)-6-((2-oxopyrrolidin-3-yl)amino)pyrimidine-4-carboxamide], the IC50 is above 20 µM.
The figure for `NC(=O)c1cccc(-c2ccc3[nH]ccc3c2)n1` [Compound 29, 6-(1H-indol-5-yl)picolinamide] is above 20 µM.
The figure for `Nc1cc(C(=O)Nc2ccc(C(F)(F)F)cc2)nc(-c2ccc3occc3c2)n1` [Compound 138, 6-amino-2-(benzofuran-5-yl)-N-(4-(trifluoromethyl)phenyl)pyrimidine-4-carboxamide] is 3.66 ± 2.4 µM.
